Reference: US20250388623A1, “PEPTIDE INHIBITOR AND USE THEREOF” (CHENGDU BRILLIANT INSPIRATION BIOTHERAPEUTICS CO., LTD, priority 2022, published 2025)

What was measured:
[1] = target: T1, binding of TSP-1 protein to CD36, a TSP-1 receptor protein (Homo sapiens, UniProt P07996); experiment: ELISA: blocking of CD36 binding to TSP-1 protein
T1 construct: purchased novoprotein (TSP-1); R&D Systems (Fc-tagged CD36) CU45 (TSP-1); 1955-CD-050 (CD36-Fc)
Method: ELISA assay was performed to detect the ability of the polypeptides to block the binding of TSP-1 protein to CD36, a TSP-1 receptor protein. TSP-1 protein (novoprotein, Catalog No. CU45) was diluted to 2 μg/mL using 100 mM carbonate buffer and added to sample wells (100 μL/well) of a 96-well ELISA plate (Thermo, Catalog No. 437111), and incubated overnight at 4° C.; after washing the plate twice using 1×PBST wash solution, 200 μL of 1.5% BSA (Sigma, Catalog No. B2064) was added to each well, and incubated at 37° C. for 2 h; after washing the plate 3 times using 1×PBST wash solution, the analytes were added (100 μL/well, 3 replicate wells; for the control group, 0.25 μg/mL of Fc-tagged CD36 protein (R&D Systems, Catalog No. 1955-CD-050); and for the polypeptide-treated groups, a mixture containing Fc-tagged CD36 protein and polypeptide at final concentrations of 0.25 μg/mL and 100 μM, respectively), and incubated at 37° C. for 3 h. After washing the plate 5 times using 1×PBST wash solution, a 1:500 dilution solution of FITC-labeled anti-Fc-tagged antibody (Beyotime, Catalog No. A0556) was added, and incubated for 1 h at 37° C.; after washing the plate 5 times using 1×PBST wash solution, a multifunctional ELISA instrument (TECAN, model: Infinite 200 Pro) was used to detect the intensity of FITC fluorescence signal in each sample well. The ability of the polypeptides to block CD36 binding to TSP-1 protein (Table 2-1) was assessed by calculating the ratio of the fluorescence signal from the polypeptide-treated groups to that of the control group, allowing for the determination of the blocking rate of the polypeptides in inhibiting CD36 binding to TSP-1 protein, i.e., (fluorescence signal of the control group-fluorescence signal of the polypeptide-treated group)/fluorescence signal of the control group×100%. Based on the blocking rate results obtained at the single concentration and on the polypeptide molecule properties, the preferred polypeptide molecules were assayed for concentration dependence (at 0 μM, 0.5 μM, 1 μM, 5 μM, 10 μM, and 100 μM), and IC50 values of the polypeptides for blocking CD36 binding to TSP-1 protein were determined to further assess the abilities of the preferred polypeptide molecules to block the binding of CD36 to TSP-1 (Table 2-2).

active TGF-β = experiment: Active TGF-β level in lung tissue, bleomycin (BLM) mouse lung fibrosis model; format: in vivo; settings: single intratracheal dose 3 mg/kg on Day 7, lung 24 h later; BLM model group = 100.00
Excerpt: This Example was to evaluate the inhibitory effect of polypeptides on active TGF-β level during the progression of fibrotic disease. In this Example, a mouse lung fibrosis model induced by bleomycin (BLM) was used. The BLM animal model offers advantages, including a close mimicry of the pathological features of the primary disease, ease of use, and good reproducibility. It is the most representative model for studying the mechanisms of fibrosis and is recommended for evaluating drug efficacy.
In this Example, 6 to 8-week-old male C57/6J mice weighing 18-20 g were used as subjects for the study. The experimental animals were randomized into groups, 8 animals in each group, and the expressions of pro-fibrotic factors were detected at the endpoint of the experiment (Day 8) in this model. In this example, an aerosol intratracheal metered dosing applicator (Yuyan, model YAN30012) was utilized for intratracheal administration during the modeling and drug delivery processes. The dosing was performed as follows (An Official American Thoracic Society Workshop Report: Use of Animal Models for the Preclinical Assessment of Potential Therapies for Pulmonary Fibrosis, Am J Respir Cell Mol Biol Vol 56, Iss 5, pp 667-679, May 2017): The experimental animals were anesthetized with aerosolized isoflurane (RWD, lot no. 22041701) using a small animal anesthesia machine (RWD, model R500IE). Animals in the appropriate anesthetic state were positioned supine with heads facing up and bodies tilted on an operating platform (tilted at approximately) 60°, secured by their incisors. The practitioner gently lifted the tongue with tissue forceps in the right hand, pushing it outward and upward to open the animal's lower jaw. Holding the laryngoscope (Yuyan, model SR310-RW) in the left hand, the practitioner slid its anterior leaf-shaped blade along the midline of the tongue into the oral cavity until reaching the glottis, gently pressing the body and root of the tongue upward. The needle of the drug applicator was then inserted through the mouth into the glottis alongside the laryngoscope, and 50 μL of liquid was quickly injected. On the day of modeling (Day 1), the experimental animals were randomly assigned to groups and administered a 0.7 USP/kg dose of bleomycin solution (HanHui Pharmaceutical, Batch No. 20080511) via the tracheal route to induce the model. On Day 7, each peptide-treated group received a single intratracheal dose of 50 μL peptide drug (at a dosage of 3 mg/kg), while the model group was given an equal volume of solvent (saline, Kelong, Batch No. L221062501) as a control. Twenty-four hours after drug administration, the animals were dissected to collect lung tissue, which was ground in liquid nitrogen to extract total protein from the lung tissue. The active TGF-β content in the lung tissue of mice from each group was measured using the TGF-β ELISA kit (BOSTER, catalog number EK0515). The ratio of active TGF-β content between the peptide-treated group and the model group was calculated to evaluate the effect of the peptide on active TGF-β level.

P-Smad2/3 = P-Smad2/3 content in lung tissue, BLM mouse fibrosis model; format: in vivo; settings: single intratracheal dose 3 mg/kg on Day 7, lung 24 h later; BLM model group = 100.00
Excerpt: This example aimed to evaluate the inhibitory effect of polypeptides on the TGF-β downstream signaling pathway during fibrosis progression. TGF-β intracellular signaling relies on the phosphorylation events of Smad family proteins. The increase in Smad2/3 phosphorylation levels is an important indicator that signal transduction has occurred in the TGF-β signaling pathway.
In this example, 6- to 8-week-old male C57/6J mice weighing 18-20 g were used as subjects for the study. The experimental animals were randomized into groups, eight animals in each group. In this example, intratracheal administration was performed using an aerosol intratracheal metered dosing applicator during both the modeling and drug delivery processes, as described in Example 4. On the day of modeling (Day 1), the experimental animals were randomly assigned to groups and administered a 0.7 USP/kg dose of bleomycin solution (HanHui Pharmaceutical, Batch No. 20080511) via the tracheal route to induce the model. On Day 7, each peptide-treated group received a single intratracheal dose of peptide drug at a dosage of 3 mg/kg, while the BLM model group was given an equal volume of solvent (saline) as a control. Twenty-four hours after drug administration, the animals were dissected, and the lung tissues were collected and frozen in liquid nitrogen for future use. Total protein from the lung tissue was extracted after grinding the tissue in liquid nitrogen, and the total P-Smad2/3 content in the tissue was measured by using P-Smad2/3 ELISA kit (CST, Catalog No. 12001C). The ratio of the P-Smad2/3 content between the peptide-treated group and the model group was calculated to evaluate the effect of the peptide on TGFβ signaling.

[2] = test system: human breast cancer MCF7 cells; experiment: Transwell tumor cell migration, co-culture with PMA-differentiated THP-1 cells; format: cell-based; settings: 100 μM polypeptide 48 h, co-culture 48 h; negative control group = 100.00
Method: (§1) This Example was to assess the effects of polypeptides on the migration abilities of different tumor cells. The experiment was performed using transwell nested chambers (membrane pore size of 8 μm), where THP-1 cells were inoculated in the lower chamber and treated with 300 nM PMA (Sigma, Catalog No.P1585) for differentiation and chamber-wall adherence, and then treated with 100 μM polypeptide (in the negative control, an equal volume of solvent was added) for 48 hours. The upper chamber was inoculated with tumor cells, human lung adenocarcinoma A549 cells (American Typical Culture Collection, ATCC, CCL-18), and co-cultured for 24 hours; or inoculated with human liver cancer HepG2/C3A cells (ATCC, CRL-10741), and co-cultured for 24 h; or inoculated with human breast cancer MCF7 cells (ATCC, HTB-22), and co-cultured for 48 h. After that, the upper chamber was taken out, fixed with 70% ethanol for 10 min and washed, then stained with Giemsa staining solution (Beyotime, Catalog No.C0131) for 45 min. After washing with double distilled water 2-3 times, unmigrated cells were wiped off the upper layer with a cotton swab. After the chamber was dried, it was observed under a microscope, and five different fields of view under a 100× magnification were randomly selected for counting and statistics. The polypeptides had significant inhibitory effects on the migratory abilities of human lung adenocarcinoma cells, human liver cancer cells, and human breast cancer cells.

[3] = test system: human liver cancer HepG2/C3A cells; experiment: as above; format: cell-based; settings: 100 μM polypeptide 48 h, co-culture 24 h; negative control group = 100.00
Method: as §1

[4] = test system: human lung adenocarcinoma A549 cells; experiment: as above; format: cell-based; settings: 100 μM polypeptide 48 h, co-culture 24 h; negative control group = 100.00
Method: as §1

[5] = test system: TSP-1-dependent TGF-β activation; experiment: TSP-1-dependent TGF-β activation in PMA-differentiated THP-1 cells with 293-TGFβ Res reporter cells; format: cell-based; settings: 100 μM polypeptide, 24 h; ratio to negative control group (1.00)
Method: In this Example, the inhibitory effects of the polypeptides on TSP-1-dependent TGF-β activation were detected using a model based on a high TSP-1 expressing cell. In the assay, THP-1 cells (American Typical Culture Collection, ATCC, TIB-20) were induced by phorbol ester (Phorbol 12-myristate 13-acetate, PMA) (Sigma, Catalog No. P1585) and differentiated into macrophage-like cells with distinct macrophage expression profiles.
The experiment was performed as follows: THP-1 cells were inoculated in a 96-well plate, and treated with 300 nM PMA for differentiation and adherence to form macrophage-like cells. 100 μM polypeptide was added (For the negative control group, an equal volume of PBS (the solvent for the polypeptide) was added, while the positive control group received an equal concentration of the polypeptide shown in SEQ ID NO: 50.) The cells were treated for 24 hours, and then a 293 reporter cell strain, 293-TGFβ Res cell strain (novoprotein, Catalog No. XCC03-1), was added for detecting TGF-β activity, and co-cultivated for 24 hours. Bio-Lite Luciferase Assay lysate comprising fluorescent substrate (Vazyme, Catalog No. DD1201-01) was added, and the fluorescent intensity was detected using a multifunctional microplate reader (TECAN, model Infinite 200 Pro). The inhibitory effect of the polypeptide on TGF-β activation was assessed by calculating the ratio of the fluorescence signal from the polypeptide-treated groups to that of the negative control group.

[6] = test system: mouse lung fibrosis model induced by bleomycin (BLM); experiment: Inflammatory and fibrotic pathology (HE, Masson's trichrome) in BLM mouse fibrosis model; format: in vivo; design: scale not given here
Method: This Example was to assess the inhibitory effect of polypeptides on fibrotic pathology. 6- to 8-week-old male C57/6J mice weighing 18-20 g were used as subjects for the study. The experimental animals were randomized into groups, 6 animals in each group. On the day of modeling (Day 1), a single dose of 0.7 USP/kg of BLM solution was administered via the tracheal route to the BLM group and each peptide-treated group to induce the model. The negative control group received an equal volume of saline. Treatment dosing started on Day 8. Each peptide-treated group received the peptide drug intratracheally at a dosage of 3 mg/kg, while the positive control group received the peptide of SEQ ID NO: 50 at the same dosage, and the administration frequency was twice a week, with a total of 4 administrations. The BLM model group and the negative control group received an equal volume of solvent (saline) as a control. The procedure followed that described in Example 4.
On Day 21, the lung tissues were dissected, washed with saline to remove blood stains, and dried with gauze. Histopathological analysis was then performed on the dissected lung tissues. The lung tissues were perfused with 0.5 mL of paraformaldehyde via the trachea and placed in 4 mL of paraformaldehyde. A small amount of gauze was added to ensure the lung tissues were completely immersed in the fixative solution. The tissues were fixed for more than 24 hours. One lobe of the left lung and four lobes of the right lung were trimmed to the maximum coronal plane, placed in an embedding cassette, dehydrated overnight, and then paraffin-embedded to make 3 μm sections. An autostainer (Leica, model ST5010) was used for Hematoxylin (Herst, lot no. 201905)-Eosin (Chron, lot no.2018070301) (HE) staining, and MASSON'S trichrome (Celestineblue, Chron, lot no. MKCH8129; Aniline blue, Yuanye, lot no. H70J11S115483; Ponceau, Sigma, lot no. SHBM2047) staining. After mounting the sections, they were scanned using a digital panoramic scanner (Zhiyue, model WS-10). For each lung lobe, ≤10 visual fields were captured under a 20× magnification. The severity of inflammation and the severity of fibrosis were assessed using HE staining and Masson's trichrome staining, respectively, to evaluate the inhibitory effects of the polypeptides on inflammatory infiltration and fibrotic deposition at pathological fibrotic sites.

[7] = 100 μM polypeptide, 0.25 μg/mL Fc-tagged CD36, blocking of CD36 binding to TSP-1

T1 sequence (P07996 19-1170): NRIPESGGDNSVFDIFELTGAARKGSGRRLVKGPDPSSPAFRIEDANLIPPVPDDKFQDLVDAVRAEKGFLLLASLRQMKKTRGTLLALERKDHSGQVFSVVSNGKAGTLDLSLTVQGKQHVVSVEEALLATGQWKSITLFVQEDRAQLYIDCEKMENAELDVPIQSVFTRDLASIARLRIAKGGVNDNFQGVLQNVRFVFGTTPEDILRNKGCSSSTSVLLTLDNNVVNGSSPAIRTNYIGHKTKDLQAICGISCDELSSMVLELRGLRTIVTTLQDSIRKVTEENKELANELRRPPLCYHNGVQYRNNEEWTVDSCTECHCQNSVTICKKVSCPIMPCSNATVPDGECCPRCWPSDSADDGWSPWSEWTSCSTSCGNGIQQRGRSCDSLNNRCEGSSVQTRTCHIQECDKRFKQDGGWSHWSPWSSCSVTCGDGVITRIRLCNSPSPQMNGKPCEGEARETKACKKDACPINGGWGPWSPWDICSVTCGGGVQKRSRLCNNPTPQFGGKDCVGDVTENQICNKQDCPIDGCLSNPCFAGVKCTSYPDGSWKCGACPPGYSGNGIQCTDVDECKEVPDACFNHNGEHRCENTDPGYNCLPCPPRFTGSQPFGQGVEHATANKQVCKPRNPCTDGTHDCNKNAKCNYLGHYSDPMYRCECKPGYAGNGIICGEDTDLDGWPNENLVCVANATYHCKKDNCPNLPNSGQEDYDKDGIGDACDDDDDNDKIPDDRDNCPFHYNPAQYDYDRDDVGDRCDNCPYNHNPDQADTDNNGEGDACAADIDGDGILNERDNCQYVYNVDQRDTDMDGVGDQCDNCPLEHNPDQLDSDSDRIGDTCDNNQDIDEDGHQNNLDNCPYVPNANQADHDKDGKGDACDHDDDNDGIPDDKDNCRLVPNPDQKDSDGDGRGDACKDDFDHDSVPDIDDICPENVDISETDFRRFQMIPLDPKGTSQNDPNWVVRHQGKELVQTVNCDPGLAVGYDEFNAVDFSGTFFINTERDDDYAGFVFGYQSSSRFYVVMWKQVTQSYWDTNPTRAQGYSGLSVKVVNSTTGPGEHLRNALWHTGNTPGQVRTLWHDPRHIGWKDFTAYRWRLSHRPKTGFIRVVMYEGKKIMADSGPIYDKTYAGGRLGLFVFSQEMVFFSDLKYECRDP

Row | Blocking rate (Mean, %) [1, 7] [%] | inhibition at 100 µM ([1]; 3 h, 100 μM polypeptide, 0.25 μg/mL Fc-tagged CD36, blocking of CD36 binding to TSP-1, read-out: Blocking rate (Mean, %)) [%] | IC50 ([1]; concentrations 0-100 μM) [µM] | Substance | active TGF-β content in lung tissue, ratio to model group, Mean(%) (active TGF-β) | P-Smad2/3 content in lung tissue, ratio to model group, Mean(%) (P-Smad2/3) | MCF7 migration Mean (%) [2] [%] | HEPG2/C3A migration Mean (%) [3] [%] | A549 migration Mean (%) [4] [%] | Mean (relative fluorescence intensity) [5] | Inflammatory score Mean ([6]; 3 mg/kg intratracheal twice weekly x4 from Day 8, Day 21, HE staining, BLM model 2.25, negative control 0.36) | Fibrosis score Mean ([6]; 3 mg/kg intratracheal twice weekly x4 from Day 8, Day 21, Masson's trichrome, BLM model 3.25, negative control 1.01)
1 | 15.07 |  |  | Ac-Gln-Asp-Ala-Glu-Asp-Asn-NH2 (Ac-QDAEDN-NH2) [SEQ ID NO: 05] | 74.15 | 72.35 | 42.55 | 74.72 | 63.92 |  |  | 
2 | 16.89 |  |  | Ac-Thr-Gln-Asp-Ala-Glu-Asp-NH2 (Ac-TQDAED-NH2) [SEQ ID NO: 04] | 74.10 | 67.91 | 62.78 | 81.13 | 57.90 |  |  | 
3 |  | 23.4 | 10.6 | H-YRVRFLAKENVTQDAEDN-OH [SEQ ID NO: 50, Tyr-Arg-Val-Arg-Phe-Leu-Ala-Lys-Glu-Asn-Val-Thr-Gln-Asp-Ala-Glu-Asp-Asn, reference compound] |  |  |  |  |  | 0.84 | 1.98 | 2.81
